The structures appear in SMILES notation. In brackets after ≈: the same amount, converted by molar mass.

The results in this text go back to ChEMBL document CHEMBL3853306, “Antidepressant-like effects and mechanisms of flavonoids and related analogues” (Eur J Med Chem, 2016).

Assay [1] can be described thus: Antidepressant- like activity in mouse assessed as decrease in immobility time at 30 mg/kg, po by tail suspension test relative to control. In kind it is functional, organism-based. Also on record: scale not given: the % may be the effect or the level left.
A short description of assay [2]: Antidepressant- like activity in mouse assessed as decrease in immobility time at 30 mg/kg, po by forced swimming test relative to control. In kind it is functional, organism-based. Set-up: scale not given: the % may be the effect or the level left.
The nature of assay [3]: Antidepressant- like activity in mouse assessed as duration of immobility time at 10 mg/kg, ip by tail suspension test (reference value: 130.5 +/- 9.6 secs). The assay is classed as functional, organism-based.
A short description of assay [4]: Antidepressant- like activity in mouse assessed as duration of immobility time at 10 mg/kg, ip by forced swimming test (reference value: 141.5 +/- 10.9 secs). The assay is classed as functional, organism-based.
Assay [5] in a line: Antidepressant activity in albino mouse assessed as immobility time at 10 mg/kg, ip administered 30 mins prior to testing by forced swimming test (reference value: 141 +/- 14.2 secs). The assay is classed as functional, organism-based.
Assay [6] in a line: Antidepressant- like activity in Balb/c mouse assessed as immobility time at 10 mg/kg, ip administered 30 mins prior to testing by forced swimming test (reference value: 123.3 +/- 10.7 secs). The assay is classed as functional, organism-based.
Assay [7] in a line: Antidepressant- like activity in Balb/c mouse assessed as immobility time at 10 mg/kg, ip administered 30 mins prior to testing by tail suspension test (reference value: 130.5 +/- 9.6 secs). The assay is classed as functional, organism-based.
The nature of assay [8]: Inhibition of MAO in mouse brain mitochondrial fraction using kynuramine as substrate assessed as formation of 4-hydroxyquinoline by fluorescence spectrometric method. The assay is classed as tissue-based.
Assay [9] is described as follows: Antidepressant- like activity in Balb/c mouse assessed as immobility time at 5 mg/kg, ip administered 30 mins prior to testing by tail suspension test (reference value: 130.5 +/- 9.6 secs). In kind it is functional, organism-based.
Assay [10] can be described thus: Antidepressant- like activity in Balb/c mouse assessed as immobility time at 5 mg/kg, ip administered 30 mins prior to testing by forced swimming test (reference value: 123.3 +/- 10.7 secs). The assay is classed as functional, organism-based.
Assay [11] can be described thus: Antidepressant- like activity in Balb/c mouse assessed as immobility time at 1 mg/kg, ip administered 30 mins prior to testing by forced swimming test (reference value: 123.3 +/- 10.7 secs). In kind it is functional, organism-based.
Assay [12] is described as follows: Antidepressant- like activity in Balb/c mouse assessed as immobility time at 1 mg/kg, ip administered 30 mins prior to testing by tail suspension test (reference value: 130.5 +/- 9.6 secs). The assay is classed as functional, organism-based.
Another assay concerns Mus musculus. As to the kind of experiment: In vivo inhibition of MAOA in ICR mouse brain at 20 mg/kg administered via oral gavage using kynuramine dihydrobromide as substrate preincubated for 15 mins followed by substrate addition measured after 30 mins in presence of MAOB inhibitor deprenyl by fluorescence spectrometric method. The assay is classed as functional.
A short description of assay [13]: Antidepressant activity in albino mouse assessed as decrease in immobility time at 10 mg/kg, ip administered 30 mins prior to testing by forced swimming test relative to control. In kind it is functional, organism-based. Also on record: scale not given: the % may be the effect or the level left.

For the molecule `COc1ccc(/C=C/C(=O)c2ccc(OCC=C(C)C)cc2O)cc1`, the Activity is 61% in assay [1] and 71.4% in assay [2]. Moreover, the results for the TIME in assay [3] and in [4] were 0.0141 h and 0.0112 h, respectively.
As to `CNCCC(Oc1ccc(C(F)(F)F)cc1)c1ccccc1` (centres undefined), the TIME is 0.0195 h in assay [5]; 0.0112 h in assay [3]; 0.0229 h in assay [6]; 0.0174 h in assay [4]; 0.021 h in assay [7].
By IC50 is commonly meant the concentration needed to halve the response being measured. Take `O=C(O)[C@H]1O[C@@H](Oc2cc(O)c3c(=O)cc(-c4ccc(O)cc4)oc3c2)[C@H](O)[C@@H](O)[C@@H]1O`: the IC50 in [8] stood at 81.7 µg/mL (≈ 183 µM).
Turning to `CC(C)=CCOc1ccc(C(=O)/C=C/c2ccc3ccccc3c2)c(O)c1`, the TIME in assay [9] was 0.0217 h; in assay [6], 0.0257 h; in assay [10], 0.022 h; in [7] it was 0.0241 h; in [11], 0.0254 h; in assay [12] it was 0.0295 h.
By inhibition in vivo is commonly meant how much of the control response was suppressed. For the molecule `O=c1c(O)c(-c2ccc(O)c(O)c2)oc2cc(O)ccc12` [FISETIN], the inhibition in vivo at 20 mg/kg in the assay with Mus musculus was found to be 14.7%.
As to `O=C1c2c(O)cc(O)cc2O[C@H](c2ccc(O)c(O)c2)[C@H]1O` [(+)-TAXIFOLIN], in assay [8], the IC50 stood at 153.1 µg/mL (≈ 503 µM).
In the case of `CC(C)=CCOc1ccc(C(=O)/C=C/c2cccc(Br)c2)c(O)c1`, the Activity worked out at 67.6% in [1] and 74.1% in assay [2]. Also, the TIME in assay [3] is 0.0118 h; in [4] it was 0.0102 h.
Regarding `O=c1cc(-c2ccc(O)c(O)c2)oc2cc(O[C@@H]3O[C@H](CO)[C@@H](O)[C@H](O)[C@H]3O)cc(O)c12` [GALUTEOLIN], in [8], the IC50 came out at 118.6 µg/mL (≈ 265 µM).
For the molecule `COc1cc(C2CC(=O)c3ccc(O)cc3O2)ccc1O` (centres undefined), in assay [13], the Activity is 34.6%. In [5], the TIME was found to be 0.0256 h.
With `CC(C)=CCOc1ccc(C(=O)/C=C/c2c(Cl)cccc2Cl)c(O)c1`, the values for the TIME in assay [3] and in assay [4] were 0.0135 h and 0.0116 h, respectively.
For the molecule `O=C1CC(c2ccc(Cl)cc2Cl)Oc2cc(O)ccc21` (centres undefined), the Activity in assay [13] worked out at 30.4%.
On to `O=C1c2c(O)cc(O)cc2O[C@H](c2ccc(O)cc2)[C@H]1O` [DIHYDROKAEMPFEROL], for which, in [8], the IC50 was 154.7 µg/mL (≈ 537 µM).
